Series [1] relates to TCF/LEF luciferase Reporter in DLD1 cells. Kind of series: TCF reporter assay (DLD1 TCF/LEF luciferase reporter, Bright-Glo). The following applies: for DLD1 TCF c2 BrightGlo % Inhibition: replicates. It is filed as cell-based. The procedure, abridged: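 Readouts: Bright-Glo luciferase for reporter signal and CellTiter-Glo for cell viability, with absolute IC50 derived. The reporter clone came from lentiviral TCF/LEF-luciferase transduction of DLD1 cells, seeded 5000 cells/well in RPMI with 4% FBS and exposed overnight to serially diluted compounds.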
A general note: Reporter assays use an easily measured gene product as a stand-in for the process of interest.

In series [2] the target is T1, beta-catenin/TCF4 engagement (Homo sapiens, UniProt P35222).
T1 construct: expressed in transfected cells; host or cells: HEK293
T1 sequence (P35222 1-781): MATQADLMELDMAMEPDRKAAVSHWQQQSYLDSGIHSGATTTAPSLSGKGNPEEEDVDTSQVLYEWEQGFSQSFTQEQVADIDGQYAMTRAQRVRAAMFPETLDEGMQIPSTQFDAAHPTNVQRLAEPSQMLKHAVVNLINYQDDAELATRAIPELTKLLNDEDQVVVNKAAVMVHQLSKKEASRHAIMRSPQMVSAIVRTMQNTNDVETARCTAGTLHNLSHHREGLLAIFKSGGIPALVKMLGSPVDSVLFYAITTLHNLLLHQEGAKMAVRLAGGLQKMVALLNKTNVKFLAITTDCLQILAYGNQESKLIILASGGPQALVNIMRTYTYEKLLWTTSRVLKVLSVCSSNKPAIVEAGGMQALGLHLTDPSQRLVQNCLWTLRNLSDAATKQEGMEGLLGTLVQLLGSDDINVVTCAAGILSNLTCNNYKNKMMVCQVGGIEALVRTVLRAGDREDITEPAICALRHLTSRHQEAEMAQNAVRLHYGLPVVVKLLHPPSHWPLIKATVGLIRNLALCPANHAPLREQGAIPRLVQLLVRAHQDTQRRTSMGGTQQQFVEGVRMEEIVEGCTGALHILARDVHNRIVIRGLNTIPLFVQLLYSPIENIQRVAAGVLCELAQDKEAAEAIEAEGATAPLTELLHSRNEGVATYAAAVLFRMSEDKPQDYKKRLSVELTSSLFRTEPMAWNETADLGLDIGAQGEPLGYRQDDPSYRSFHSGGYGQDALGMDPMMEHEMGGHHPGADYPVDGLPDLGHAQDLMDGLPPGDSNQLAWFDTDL
Kind of series: Nano-BRET target engagement assay (B-cat-Halo & TCF4-Luc in HEK293 cells). The format is cell-based. For orientation: Bioluminescence resonance energy transfer reports proximity on the nanometre scale.

Series [3] addresses T2, full-length beta-Catenin (Uniprot ID P35222) (Homo sapiens, UniProt P35222).
T2 construct: 10 nM full-length beta-Catenin (Uniprot ID P35222)
T2 sequence (P35222 1-781): T1 sequence (P35222 1-781)
Kind of series: Fluorescence polarization IC50 (beta-catenin / 5FAM-TCF4 10-53 competition). It is filed as binding. (In general: Fluorescence polarisation rises when a labelled molecule tumbles more slowly, as on binding a larger partner.)

The nature of another series: CHI Log D procedure. The following applies: for CHI Log D / logD: pH 7.4; for chromatographic logD: pH 7.4, CHI Log D. It is filed as physicochemical.
The mark [4] stands for this setting: Abs IC50, read-out: DLD1 reporter assay Abs IC50.
[5] abbreviates: first dose = 20 uM (plate map), 20 µM.
[6] abbreviates: read-out: DLD1 4% Abs IC50, DLD1 4%.
Setting [7] is: third dose = 5 uM (plate map), 5 µM.
[8] abbreviates: absolute IC50, read-out: NanoBRET Abs IC50.
The mark [9] stands for this setting: absolute IC50, read-out: DLD1 reporter assay Abs IC50.
[10] abbreviates: read-out: DLD1 4% Abs IC50, DLD1 reporter, 4%, absolute IC50.
[11] abbreviates: fluorescence polarization, read-out: beta-Catenin FP IC50.

The values that follow come from US20240116985A1, “STAPLED PEPTIDES AND METHODS THEREOF” (priority 2020, published 2024).

“And” between values parts separate entries of the source, which are not always exact repeats. Identical values can stand only once. Like-named read-outs stand apart in the source and are kept apart here.

A word on the logD: it is the decadic logarithm of the distribution of all forms, ionised or not, between an organic phase and buffer at a given pH. Higher therefore signals a more lipophilic compound. Usually chromatographic logD stands for lipophilicity estimated from chromatographic retention. The low end stands for a more hydrophilic compound, the high end for a more lipophilic compound.

`CC(=O)N1CCC[C@]12CC=CCCCC1(CCCC=CCCCOC(=O)N3CC[C@@](C(=O)N[C@@H](Cc4ccsc4)C(=O)N[C@@H](Cc4csc5ccccc45)C(=O)N[C@@H](CCC(N)=O)C(N)=O)(C3)NC(=O)[C@H](CC(N)=O)NC(=O)[C@H](Cc3ccccc3)NC(=O)[C@H](C)NC(=O)[C@H](C)NC(=O)[C@H](CN(CC(=O)O)CC(F)(F)F)NC(=O)[C@H](CC(=O)O)NC1=O)NC(=O)[C@H](CC(C)(C)C)NC(=O)[C@H](CC(=O)O)NC2=O` (single isomer, unassigned) [I-762, Ac-PL3-Asp-Npg-B5-Asp-TfeGA-Ala-Ala-Phe-Asn-PyrS2-3Thi-BztA-Gln-NH2]: the IC50 was 6 µM in series [1] (setting [4]); 0.3 µM in series [1] (Peptide + ST-Protein (SAINT-Protein lipid), read-out: TCF Reporter Assay Abs IC50); 7 µM in series [1] (Peptide only, read-out: TCF Reporter Assay Abs IC50); 7.9 µM in series [1] (setting [6]); 10 µM in series [2] (Abs IC50, read-out: NanoBRET Abs IC50); 0.7 µM in series [2] (Peptide + ST-Protein (SAINT-Protein lipid), read-out: Nano-BRET Abs IC50). The IC50 was determined as 11 µM in series [2] (Peptide only, read-out: Nano-BRET Abs IC50); 14 µM in series [2] (read-out: NanoBRET Abs IC50); 0.006 µM in series [3] (read-out: FP EC50); 0.006 µM in series [3] (read-out: bCat FP IC50); 0.005 µM in series [3] (read-out: beta-Catenin FP IC50). The “DLD1 TCF c2 BrightGlo % Inhibition” value in series [1] (setting [5]) is 75.7% and 81.9% and 78.7%; in series [1] (0.625 µM), 14.5% and 18.6% and 9.3%; in series [1] (1.25 µM), 12.9% and 16.9% and 5.5%; in series [1] (2.5 µM), 12.9% and 17.4% and 11.9%; in series [1] (10 µM), 56.8% and 70.2% and 65.6%; in series [1] (setting [7]), 28.2% and 45.2% and 44.6%. In addition, the “CHI Log D” value in the series “CHI Log D procedure” was 2.247. The logD in “CHI Log D procedure” is reported as 2.2.
Consider `CC(=O)N1CCC[C@]12CC=CCCCC1(CCCC=CCCCOC(=O)N3CC[C@@](C(=O)N[C@@H](Cc4ccsc4)C(=O)N[C@@H](Cc4csc5ccccc45)C(=O)N[C@@H](CCC(N)=O)C(N)=O)(C3)NC(=O)[C@H](CC(N)=O)NC(=O)[C@H](Cc3ccccc3)NC(=O)[C@H](C)NC(=O)[C@H](C)NC(=O)[C@H](CC(=O)O)NC(=O)[C@H](CC(=O)O)NC1=O)NC(=O)[C@H](CC(C)(C)C)NC(=O)[C@H](CC(=O)O)NC2=O` (stereo partly drawn) [I-686, Ac-PL3-Asp-Npg-B5-Asp-Asp-Ala-Ala-Phe-Asn-PyrS2-3Thi-BztA-Gln-NH2], for which the IC50 in series [1] (setting [4]) was found to be 5.6 µM. In the series “CHI Log D procedure”, the “CHI Log D” value came out at 1.997 and the logD is reported as 2.0.
For the molecule `CC(=O)N1CCC[C@]12CC=CCCCC1(CCCC=CCCCOC(=O)N3CC[C@@](C(=O)N[C@@H](Cc4ccsc4)C(=O)N[C@@H](Cc4csc5ccccc45)C(=O)N[C@@H](CCC(N)=O)C(N)=O)(C3)NC(=O)[C@H](Cc3ccccc3)NC(=O)[C@H](Cc3ccccc3)NC(=O)[C@H](C)NC(=O)[C@H](C)NC(=O)[C@H](Cc3cccc(C(=O)O)c3)NC(=O)[C@H](CC(=O)O)NC1=O)NC(=O)[C@H](CC(C)(C)C)NC(=O)[C@H](CC(=O)O)NC2=O` (stereo partly drawn) [I-852, Ac-PL3-Asp-Npg-B5-Asp-3COOHF-Ala-Ala-Phe-Phe-PyrS2-3Thi-BztA-Gln-NH2], the IC50 in series [1] (setting [6]) came out at 1.4 µM; in series [2] (setting [8]), 2.8 µM; in series [3] (read-out: beta-Catenin FP IC50), 0.007 µM. Also, the chromatographic logD in “CHI Log D procedure” came to 2.4.
On to `CC(=O)N1CCC[C@]12CC=CCCCC1(CCCC=CCCCOC(=O)N3CC[C@@](C(=O)N[C@@H](Cc4ccccc4Br)C(=O)N[C@@H](Cc4csc5ccccc45)C(=O)N[C@@H](CCC(N)=O)C(N)=O)(C3)NC(=O)[C@H](CC(N)=O)NC(=O)[C@H](Cc3ccccc3)NC(=O)[C@H](C)NC(=O)[C@H](C)NC(=O)[C@H](CN(CC(=O)O)CC(F)(F)F)NC(=O)[C@H](CC(=O)O)NC1=O)NC(=O)[C@H](CC(C)(C)C)NC(=O)[C@H](CC(=O)O)NC2=O` (stereo partly drawn) [I-924, Ac-PL3-Asp-Npg-B5-Asp-TfeGA-Ala-Ala-Phe-Asn-PyrS2-2BrF-BztA-Gln-NH2], for which the IC50 in series [1] (setting [9]) worked out at 4.5 µM; in series [2] (setting [8]), 3.3 µM; in series [3] (read-out: beta-Catenin FP IC50), 0.007 µM. The same molecule came in with a chromatographic logD in the series “CHI Log D procedure” of 2.28.
Consider `CC(=O)N1CCC[C@]12CC=CCCCC1(CCCC=CCCCOC(=O)N3CC[C@@](C(=O)N[C@@H](Cc4ccccc4C(F)(F)F)C(=O)N[C@@H](Cc4csc5ccccc45)C(=O)N[C@@H](CCC(N)=O)C(N)=O)(C3)NC(=O)[C@H](CC(N)=O)NC(=O)[C@H](Cc3ccccc3)NC(=O)[C@H](C)NC(=O)[C@H](C)NC(=O)[C@H](CN(CC(=O)O)CC(F)(F)F)NC(=O)[C@H](CC(=O)O)NC1=O)NC(=O)[C@H](CC(C)(C)C)NC(=O)[C@H](CC(=O)O)NC2=O` (stereo partly drawn) [I-927, Ac-PL3-Asp-Npg-B5-Asp-TfeGA-Ala-Ala-Phe-Asn-PyrS2-2F3MeF-BztA-Gln-NH2], for which the IC50 in series [1] (setting [9]) is 4.2 µM; in series [2] (setting [8]), 8.2 µM; in series [2] (read-out: NanoBRET Abs IC50), 8.2 µM; in series [3] (fluorescence polarization, beta-catenin, read-out: FP EC50), 0.011 µM; in series [3] (read-out: beta-Catenin FP IC50), 0.011 µM. Besides, the “DLD1 TCF c2 BrightGlo % Inhibition” value in series [1] (setting [5]) is 77.1% and 77.4% and 80.3%; in series [1] (0.625 µM), 3.5% and 8.0% and 14.3%; in series [1] (1.25 µM) it was 8.7% and 15.1% and 18.6%; in series [1] (2.5 µM), 23.9% and 33.7% and 42.0%; in series [1] (10 µM), 68.0% and 70.2% and 72.9%; in series [1] (setting [7]), 53.1% and 55.2% and 60.1%. Besides, the “CHI Log D” value in “CHI Log D procedure” stood at 2.313.
With `CC(=O)N1CCC[C@]12CC=CCCCC1(CCCC=CCCCOC(=O)N3CC[C@@](C(=O)N[C@@H](Cc4ccccc4C(F)(F)F)C(=O)N[C@@H](Cc4csc5ccccc45)C(=O)N[C@@H](C)C(N)=O)(C3)NC(=O)[C@H](CC(C)C)NC(=O)[C@H](Cc3ccccc3)NC(=O)[C@H](C)NC(=O)[C@H](CCC(N)=O)NC(=O)[C@H](Cn3cc(CC4(C(=O)O)CCCCC4)nn3)NC(=O)[C@H](CC(=O)O)NC1=O)NC(=O)[C@H](CC(C)(C)C)NC(=O)[C@H](CC(=O)O)NC2=O` (stereo partly drawn) [I-2520, Ac-PL3-Asp-Npg-B5-Asp-[CH2CChCO2H]TriAzDap-Gln-Ala-Phe-Leu-PyrS2-2F3MeF-BztA-Ala-NH2], the IC50 in series [1] (setting [10]) is 5.7 µM; in series [2] (setting [8]), 5.9 µM; in series [3] (setting [11]), 0.027 µM.
On the same counts, the results for `CC(=O)N1CCC[C@]12CC=CCCCC1(CCCC=CCCCOC(=O)N3CC[C@@](C(=O)N[C@@H](Cc4ccccc4C(F)(F)F)C(=O)N[C@@H](Cc4csc5ccccc45)C(=O)N[C@@H](CO)C(N)=O)(C3)NC(=O)[C@H](CC(C)C)NC(=O)[C@H](Cc3ccccc3)NC(=O)[C@H](C)NC(=O)[C@H](C)NC(=O)[C@H](Cn3cc(CC4(C(=O)O)CCCCC4)nn3)NC(=O)[C@H](CC(=O)O)NC1=O)NC(=O)[C@H](CC(C)(C)C)NC(=O)[C@H](CC(=O)O)NC2=O` (stereo partly drawn) [I-2521, Ac-PL3-Asp-Npg-B5-Asp-[CH2CChCO2H]TriAzDap-Ala-Ala-Phe-Leu-PyrS2-2F3MeF-BztA-Ser-NH2] are 3 µM, 5.6 µM and 0.038 µM.
